Measurements: patent US20060088545A1, “Use of inhibitors of the protease of the human immunodeficiency virus (hiv) to block cell migration and/or invasion, tissue infiltration and oedema for the therary of diseases associated therewith” (priority 2001, published 2006)
Like-named read-outs stand apart in the source and are kept apart here.

Tests used:
[1] = test system: angiogenesis induced by bFGF or VEGF in the chorioallantoic membrane; settings: for VEGF-induced angiogenesis, % of the untreated VEGF control / bFGF-induced angiogenesis, % of the untreated bFGF control / Average vessel (number/mm^2 ± SD): HIV-PI 10 μM; for basal CAM vascularization: drug administered alone; for toxicity in CAM: in vivo
Experimental: CAM assays were performed with 1 mm^3 sterilized gelatin sponges (Gelfoam; Upjohn Co, Kalamazoo, Mich.) adsorbed with bFGF or VEGF (1 μg or 100 ng, respectively) in 5 μl of PBS, and with buffer, HIV-PI (10 μM) or taxol (250 nM) (Bristol-Myers Squibb Co., Princeton, N.J.) as described (Ribatti et al, Int. J. Dev. Biol., 1996). CAM were examined daily until day 12 under an Olympus SZX9 stereomicroscope. Images (1024×1024 pixels) were captured at a distance of 2 mm from the edge of the sponge using a cooled digital CCD Hamamatsu ORCA camera (Hamamatsu Photonics Italia, Arese, Italy). Vessel number was quantified with the ImageProPlus 4.0 imaging software (Media Cybernetics, Silver Spring, Md.) in 3 randomly selected areas per egg ([…]).
Results are expressed as the average number of vessels/mm^2±SD from the indicated number of CAM per experimental condition.

KS cells = assay: KS cell proliferation (trypan blue dye exclusion); assay type: cell-based, human; settings: 7 days
[2] = test system: endothelial/lung carcinoma hybrid (Ea-hy 926) cells; assay: Invasion assay of Ea-hy 926 cells in response to bFGF; assay type: cell-based, human; settings: 1 μM
Experimental: The assays have been performed essentially as described in key to FIG. 1. No growth factors were added to EA-hy 926 cells since they produce factors which mediates cell growth in autocrine fashion (Edgell et al., 1983, Albini et al., PNAS 1995, Albini et al., Nat Med 1996). […] The assays have been performed essentially as described in legend to FIG. 3. Average and variation range of two independent experiments each performed in duplicate are shown.

[3] = test system: hepato-carcinoma cells (SK-Hep-1); assay: Cell growth assay of SK-Hep-1 cells; assay type: cell-based, human; settings: 10 μM; 4 days
Experimental: FIG. 16. […] Shown is the result of a representative cell growth assay performed on the hepato-carcinoma cells. Human hepato-carcinoma cells (SK-Hep-1; from ATCC) were plated in triplicate (8×10^4 cells/well) in 12-well plates. […] After 4 days of culture, the cells were counted by trypan blue dye staining, as previously described (Ensoli et al., 1990; Ensoli et al., 1994b): For all the in vitro studies HIV-PI as endotoxin-free pure powder (a kind gift of Merck Sharp & Dohme and Roche) were resuspended in distilled water. Assays were repeated at least three times.

EA-hy 926 cells [4] = assay: Angiogenic tumours induced by EA-hy 926 cells in nude mice (drug pre-treatment); assay type: in vivo; settings: EA-hy 926 cells 3×10^6; for No. of mice with macroscopic lesions/No. of inoculated mice / mice with macroscopic lesions (%): treatment since 2 days prior to inoculation
Experimental: (§1) To determine whether HIV-PI could inhibit the growth of a malignant angiogenic tumour, nude mice were inoculated with the EA-hy 926 cell line. This cell line is derived from a hybrid between H-UVEC and human lung adeno-carcinoma cells (Edgell et al, PNAS 1983), retains most of the endothelial cell markers and is used as an angiogenic tumour model (Albini et al, Nat Med 1996; Albini et al, PNAS 1995; Cai et al, Lab Invest 1999). HIV-PI were administered to nude mice starting 2 days prior to tumour cell inoculation.
Mice were sacrificed 5-6 days after cell injection and lesions present at the injection site measured by caliper, and analyzed microscopically after H&E staining or by immuno-histochemical analysis. […] Tumour-associated angiogenesis was evaluated after immuno-histochemical staining for FVIII-RA or CD31 markers, as described in legend to Table 1. Shown are external lesion size (cm^2±SD) and the percentage of stained tumour tissue (±SD) as quantified by the KS300 image analysis software (Zeiss) (see methods).

EA-hy 926 cells [5] = assay: Tumour angiogenic lesions induced by Ea-hy 926 cells in nude mice, no drug pre-treatment; assay type: in vivo; settings: treatment started on the day of cell inoculation, 5 days
Experimental: Mice were inoculated subcutaneously into the lower back with Ea-hy 926 cells (3×10^6 cells/animal in 0.2 ml of 10% FBS RPMI 1640) or with the resuspension medium, all mixed with 0.2 ml of growth factor-depleted matrigel (BD Biosciences, Bedford, Mass.) prior to inoculation as described above. […] Treatment was then continued for 5 days, until sacrifice. The size of the lesions present at the injection site was evaluated daily by caliper measurement. External lesion area was then calculated as the product of the two major lesion diameters. The mean size (cm^2) of the lesions present at the injection site is shown.
as §1, with “inoculation. […] Similarly, the external tumour area was reduced in mice treated with both HIV-PI (P<0.05), reaching the size of the negative controls (Table 7). […] Inhibition of tumour growth was also observed in the absence of drug pre-treatment (FIG. 25). […]” for “inoculation.”

[6] = test system: hepato-carcinoma (SK-Hep-1) cells; assay: Tumour lesions induced by SK-Hep-1 cells in nude mice; assay type: in vivo; settings: 5×10^6 cells/site; daily treatment
Experimental: (§2) Twenty-four hours before cell injection, the mice have received sub-lethal irradiation (400 G) in order to increase the tumour up-take. The treatment with HIV-PI or saline solution continued until sacrifice. The size of the lesions present at the injection site was evaluated daily by caliper measurement. External lesion area was then calculated as the product of the two major lesion diameters. The mean size (cm^2) of the lesions present at the injection site is shown.
(§3) To determine whether HIV-PI could inhibit the growth of malignant solid and lymphoid tumours, nude mice were inoculated with hepato-carcinoma cells (SK-Hep-1), lung carcinoma cells (A549), breast adeno-carcinoma cells (MDA-MB-468), myelo-monocytic leukaemia cells (U937), and T lymhocytic leukaemia cells (Jurkat).

[7] = test system: lung carcinoma (A549) cells; assay: Lesions induced by A549 cells in nude mice; assay type: in vivo; settings: 5×10^6 cells/site; daily treatment
Experimental: as §2, with “The” for “Twenty-four hours before cell injection, the mice have received sub-lethal irradiation (400 G) in order to increase the tumour up-take. The”
as §3

Structure (SMILES)	VEGF-induced angiogenesis, % of the untreated VEGF control [1]	bFGF-induced angiogenesis, % of the untreated bFGF control [1]	Average vessel (number/mm^2 ± SD) ([1]; VEGF 100 ng)	Average vessel (number/mm^2 ± SD) ([1]; bFGF 1 μg, taxol 250 nM)	basal CAM vascularization [1]	toxicity in CAM [1]	KS cell proliferation (viable cells, trypan blue) (KS cells)	invasion in response to bFGF [2]	proliferation [3]	External lesion size (cm^2 ± SD) (EA-hy 926 cells [4])	Tissue staining (area % ± SD) CD31 (EA-hy 926 cells [4])	Tissue staining (area % ± SD) FVIII-RA (EA-hy 926 cells [4])	No. of mice with macroscopic lesions/No. of inoculated mice (EA-hy 926 cells [4])	mice with macroscopic lesions (%) (EA-hy 926 cells [4])	regression of tumour angiogenic lesions (lesion size) (EA-hy 926 cells [5])	development of tumour lesions (lesion size) [6]	development of lesions (lesion size) [7]	mice with macroscopic lesions (%) (EA-hy 926 cells [4]; listed as indinavir)
CC(C)(C)NC(=O)[C@@H]1C[C@@H]2CCCC[C@@H]2CN1C[C@@H](O)[C@H](Cc1ccccc1)NC(=O)[C@H](CC(N)=O)NC(=O)c1ccc2ccccc2n1 [Saquinavir, saquinavir]	11%	19%	5.39 ± 0.67 number/mm^2	6.08 ± 1.84 number/mm^2	did not affect	not associated with toxicity	no effect	inhibit	do not interfere	0.55 ± 0.14 cm^2	0.08 ± 0.1%	0.71 ± 0.8%	3/12	25%	promote the regression	inhibit	inhibit	–
CC(C)(C)NC(=O)[C@@H]1CN(Cc2cccnc2)CCN1C[C@@H](O)C[C@@H](Cc1ccccc1)C(=O)N[C@H]1c2ccccc2C[C@H]1O [Indinavir, indinavir]	36%	42%	7.70 ± 2.52 number/mm^2	8.22 ± 2.54 number/mm^2	did not affect	not associated with toxicity	no effect	inhibit	do not interfere	0.63 ± 0.17 cm^2	0.70 ± 0.6%	1.01 ± 1.5%	4/12	33.3%	promote the regression	inhibit	inhibit	33%
